Measured values reported in patent publication US20250340557A1, “PYRIMIDINE DERIVATIVE” (ASKA PHARMACEUTICAL CO., LTD., priority 2022, published 2025).

What follows are molecules tested against T1, human mPGES-1 (Homo sapiens, UniProt O14684) (assay: Test for mPGES-1 inhibitory activity (microsomal enzyme, PGE2 EIA)). Settings: microsomes from COS-1 cells transfected with human mPGES-1 cDNA; substrate PGH2 1 μM; 4° C., 4 minutes; PGE2 measured by EIA; read-out: h mPGES1 IC50.
T1 construct: made in house; host or cells: COS-1 cells (transient transfection; microsomal fraction used as enzyme)
T1 sequence (O14684 1-152): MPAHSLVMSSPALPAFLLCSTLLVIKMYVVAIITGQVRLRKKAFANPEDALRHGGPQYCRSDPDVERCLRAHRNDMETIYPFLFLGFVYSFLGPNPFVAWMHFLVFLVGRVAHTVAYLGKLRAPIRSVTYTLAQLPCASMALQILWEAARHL
Format: biochemical
Protocol: Test Example 1: Test for mPGES-1 Inhibitory Activity
Microsomes were prepared from COS-1 cells transiently transfected with a plasmid containing human mPGES-1 cDNA, and used as mPGES-1 enzyme. The mPGES-1 enzyme was diluted with a sodium phosphate buffer (pH 7.2) containing reduced glutathione (2.5 mM) and EDTA (1 mM), DMSO or a DMSO solution of a test compound (final concentration of DMSO was 2%) was added to the enzyme, and the mixture was preincubated at 4° C. for 15 minutes. Then, PGH2 (Prostaglandin H2) as the substrate was added at a final concentration of 1 μM to start the enzymatic reaction, and after incubation at 4° C. for 4 minutes, a solution of ferric chloride (25 mM) and citric acid (50 mM) was added to terminate the enzymatic reaction. Generated PGE2 (Prostaglandin E2) was measured by using Prostaglandin E2 Express EIA Kit (Cayman Chemical). IC50 values were determined by using a standard method.

Row | IC50 [nM] | Structure (SMILES)
1 | 6.4 | O=c1cc(C(F)(F)F)nc(-c2c(C(F)(F)F)ccc(CNC(=O)[C@H]3C[C@@H](OCc4ccccc4)C3)c2F)[nH]1 [Example 135, cis-3-(benzyloxy)-N-{2-fluoro-3-[6-oxo-4-(trifluoromethyl)-1,6-dihydropyrimidin-2-yl]-4-(trifluoromethyl)benzyl}cyclobutane-1-carboxamide]
2 | < 10 | Cc1cc(=O)[nH]c(-c2c(C(F)(F)F)ccc(CNC(=O)C3CCN(c4ccc5cccc(C)c5n4)CC3)c2F)n1 [Example 9, N-[2-fluoro-3-(4-methyl-6-oxo-1,6-dihydropyrimidin-2-yl)-4-(trifluoromethyl)benzyl]-1-(8-methylquinolin-2-yl)piperidine-4-carboxamide]
3 | 28.7 | O=C(NCc1ccc(C(F)(F)F)c(-c2nc(C(F)(F)F)cc(=O)[nH]2)c1F)c1ccc(-c2ccc3nccn3n2)cc1 [Example 2, N-{2-fluoro-3-[6-oxo-4-(trifluoromethyl)-1,6-dihydropyrimidin-2-yl]-4-(trifluoromethyl)benzyl}-4-(imidazo[1,2-b]pyridazin-6-yl)benzamide]
4 | < 1 | O=C(NCc1ccc(C(F)(F)F)c(-c2nc(C(F)(F)F)cc(=O)[nH]2)c1F)C1CCN(c2ccccn2)CC1 [Example 19, N-{2-fluoro-3-[6-oxo-4-(trifluoromethyl)-1,6-dihydropyrimidin-2-yl]-4-(trifluoromethyl)benzyl}-1-(pyridin-2-yl)piperidine-4-carboxamide]
5 | 31 | Cc1cc(=O)[nH]c(-c2c(C(F)(F)F)ccc(CNC(=O)C3CCN(c4ccc(Cl)cc4)CC3)c2F)n1 [Example 76, 1-(4-chlorophenyl)-N-[2-fluoro-3-(4-methyl-6-oxo-1,6-dihydropyrimidin-2-yl)-4-(trifluoromethyl)benzyl]piperidine-4-carboxamide]
6 | < 1 | N#Cc1ccc(N2CCC(C(=O)NCc3ccc(C(F)(F)F)c(-c4nc(C(F)(F)F)cc(=O)[nH]4)c3F)CC2)c(Cl)c1 [Example 75, 1-(2-chloro-4-cyanophenyl)-N-{2-fluoro-3-[6-oxo-4-(trifluoromethyl)-1,6-dihydropyrimidin-2-yl]-4-(trifluoromethyl)benzyl}piperidine-4-carboxamide]
7 | < 1 | O=C(NCc1ccc(C(F)(F)F)c(-c2nc(C(F)(F)F)cc(=O)[nH]2)c1F)C1CCN(c2ccc(Cl)cn2)CC1 [Example 27, 1-(5-chloropyridin-2-yl)-N-{2-fluoro-3-[6-oxo-4-(trifluoromethyl)-1,6-dihydropyrimidin-2-yl]-4-(trifluoromethyl)benzyl}piperidine-4-carboxamide]
8 | 18 | O=C(NCc1ccc(C(F)(F)F)c(-c2nc(C(F)(F)F)cc(=O)[nH]2)c1F)C1CCN(c2ncc(Cl)cc2F)CC1 [Example 37, 1-(5-chloro-3-fluoropyridin-2-yl)-N-{2-fluoro-3-[6-oxo-4-(trifluoromethyl)-1,6-dihydropyrimidin-2-yl]-4-(trifluoromethyl)benzyl}piperidine-4-carboxamide]
9 | < 1 | O=C(NCc1ccc(C(F)(F)F)c(-c2nc(C(F)(F)F)cc(=O)[nH]2)c1F)C1CCN(c2cccc(C(F)(F)F)c2)CC1 [Example 67, N-{2-fluoro-3-[6-oxo-4-(trifluoromethyl)-1,6-dihydropyrimidin-2-yl]-4-(trifluoromethyl)benzyl}-1-[3-(trifluoromethyl)phenyl]piperidine-4-carboxamide]
10 | < 1 | O=C(NCc1ccc(C(F)(F)F)c(-c2nc(C(F)(F)F)cc(=O)[nH]2)c1F)C1CCN(c2ccc(C(F)(F)F)nc2)CC1 [Example 21, N-{2-fluoro-3-[6-oxo-4-(trifluoromethyl)-1,6-dihydropyrimidin-2-yl]-4-(trifluoromethyl)benzyl}-1-[6-(trifluoromethyl)pyridin-3-yl]piperidine-4-carboxamide]
11 | 1.4 | COc1cc(N2CCC(C(=O)NCc3ccc(C(F)(F)F)c(-c4nc(C)cc(=O)[nH]4)c3F)CC2)ccc1Cl [Example 93, 1-(4-chloro-3-methoxyphenyl)-N-[2-fluoro-3-(4-methyl-6-oxo-1,6-dihydropyrimidin-2-yl)-4-(trifluoromethyl)benzyl]piperidine-4-carboxamide]
12 | 22 | CCc1nc(-c2c(C(F)(F)F)ccc(CNC(=O)C3CCN(c4ccc(OC(F)(F)F)cc4)CC3)c2F)[nH]c(=O)c1F [Example 80, N-[3-(4-ethyl-5-fluoro-6-oxo-1,6-dihydropyrimidin-2-yl)-2-fluoro-4-(trifluoromethyl)benzyl]-1-[4-(trifluoromethoxy)phenyl]piperidine-4-carboxamide]

Same assay, conditions: microsomes of COS-1 cells transfected with human mPGES-1 cDNA; PGH2 1 μM; 4° C., 4 minutes; PGE2 by EIA; read-out: h mPGES1 IC50

Row | IC50 [nM] | Structure (SMILES)
13 | < 1 | O=C(NCc1ccc(C(F)(F)F)c(-c2nc(C(F)(F)F)cc(=O)[nH]2)c1F)C1CCC(Oc2ccc(C(F)(F)F)cn2)CC1 (centres unmarked) [Example 248, N-{2-fluoro-3-[6-oxo-4-(trifluoromethyl)-1,6-dihydropyrimidin-2-yl]-4-(trifluoromethyl)benzyl}-4-{[5-(trifluoromethyl)pyridin-2-yl]oxy}cyclohexane-1-carboxamide]
14 | < 1 | O=c1cc(C(F)(F)F)nc(-c2c(C(F)(F)F)ccc(CNC(=O)[C@H]3C[C@@H](OCc4ccc(F)c(Cl)c4)C3)c2F)[nH]1 [Example 158, cis-3-[(3-chloro-4-fluorobenzyl)oxy]-N-{2-fluoro-3-[6-oxo-4-(trifluoromethyl)-1,6-dihydropyrimidin-2-yl]-4-(trifluoromethyl)benzyl}cyclobutane-1-carboxamide]
15 | < 1 | O=c1cc(C(F)F)nc(-c2c(C(F)(F)F)ccc(CNC(=O)[C@H]3C[C@H](OCc4ccc(Cl)cc4)C3)c2F)[nH]1 [Example 163, trans-3-[(4-chlorobenzyl)oxy]-N-{3-[4-(difluoromethyl)-6-oxo-1,6-dihydropyrimidin-2-yl]-2-fluoro-4-(trifluoromethyl)benzyl}cyclobutane-1-carboxamide]
16 | 76 | O=c1cc(-c2ccc(C(F)(F)F)cn2)nc(-c2c(C(F)(F)F)ccc(CNS(=O)(=O)c3ccc(-c4ccccc4)cc3)c2F)[nH]1 [Example 271, N-(2-fluoro-3-{6-oxo-4-[5-(trifluoromethyl)pyridin-2-yl]-1,6-dihydropyrimidin-2-yl}-4-(trifluoromethyl)benzyl)-[1,1′-biphenyl]-4-sulfonamide]
17 | 14 | CCc1cc(=O)[nH]c(-c2c(C(F)(F)F)ccc(CNC(=O)[C@H]3C[C@H](OCc4cccc(F)c4)C3)c2F)n1 [Example 205, trans-N-[3-(4-ethyl-6-oxo-1,6-dihydropyrimidin-2-yl)-2-fluoro-4-(trifluoromethyl)benzyl]-3-[(3-fluorobenzyl)oxy]cyclobutane-1-carboxamide]
18 | < 1 | CCc1nc(-c2c(C(F)(F)F)ccc(CNC(=O)[C@H]3C[C@H](OCc4ccccc4Cl)C3)c2F)[nH]c(=O)c1F [Example 229, trans-3-[(2-chlorobenzyl)oxy]-N-[3-(4-ethyl-5-fluoro-6-oxo-1,6-dihydropyrimidin-2-yl)-2-fluoro-4-(trifluoromethyl)benzyl]cyclobutane-1-carboxamide]
19 | 8.8 | CCc1cc(=O)[nH]c(-c2c(C(F)(F)F)ccc(CNC(=O)[C@H]3C[C@H](OCc4cc(Cl)ccc4F)C3)c2F)n1 [Example 209, trans-3-[(5-chloro-2-fluorobenzyl)oxy]-N-[3-(4-ethyl-6-oxo-1,6-dihydropyrimidin-2-yl)-2-fluoro-4-(trifluoromethyl)benzyl]cyclobutane-1-carboxamide]
20 | 24 | O=C(NCc1ccc(C(F)(F)F)c(-c2nc(C(F)(F)F)cc(=O)[nH]2)c1F)C1CN(C(=O)Cc2ccc(F)cc2)C1 [Example 276, N-{2-fluoro-3-[6-oxo-4-(trifluoromethyl)-1,6-dihydropyrimidin-2-yl]-4-(trifluoromethyl)benzyl}-1-[2-(4-fluorophenyl)acetyl]azetidine-3-carboxamide]
21 | 6.9 | Cc1nc(-c2c(C(F)(F)F)ccc(CNC(=O)[C@H]3C[C@H](OCc4ccccc4C(F)(F)F)C3)c2F)[nH]c(=O)c1F [Example 215, trans-N-[2-fluoro-3-(5-fluoro-4-methyl-6-oxo-1,6-dihydropyrimidin-2-yl)-4-(trifluoromethyl)benzyl]-3-{[2-(trifluoromethyl)benzyl]oxy}cyclobutane-1-carboxamide]
22 | < 1 | CCc1cc(=O)[nH]c(-c2c(C(F)(F)F)ccc(CNC(=O)[C@H]3C[C@H](OCc4ccccc4Cl)C3)c2F)n1 [Example 195, trans-3-[(2-chlorobenzyl)oxy]-N-[3-(4-ethyl-6-oxo-1,6-dihydropyrimidin-2-yl)-2-fluoro-4-(trifluoromethyl)benzyl]cyclobutane-1-carboxamide]
23 | < 1 | CCc1nc(-c2c(C(F)(F)F)ccc(CNC(=O)[C@H]3C[C@H](OCc4cc(F)cc(F)c4)C3)c2F)[nH]c(=O)c1F [Example 238, trans-3-[(3,5-difluorobenzyl)oxy]-N-[3-(4-ethyl-5-fluoro-6-oxo-1,6-dihydropyrimidin-2-yl)-2-fluoro-4-(trifluoromethyl)benzyl]cyclobutane-1-carboxamide]
